# Measured values taken from US20260001893A1, “SMALL MOLECULE MODULATORS OF STAT6” (Gilead Sciences, Inc., priority 2024, published 2026).
# Tested on: Eotaxin-3 (CCL26) release in human whole blood stimulated with IL-4
# Test: Human whole blood eotaxin-3 assay (IL-4 stimulated eotaxin-3 release)
# Assay type: cell-based
# Conditions: Homo sapiens, 48 h, human whole blood stimulated with recombinant human IL-4, 48 h; given for test compounds with <80% Emax; geometric mean
# Procedure: Human Whole Blood Eotaxin-3 Assay
# This was a human whole blood assay using recombinant human Interleukin 4 to stimulate the blood and measuring the ability of the test compounds to inhibit eotaxin-3 release. The biological activities of the test compounds have been tested in human whole blood stimulated with IL-4 measuring Eotaxin-3 release. The test compounds were added to 384 well clear flat-bottom plate in a 4-fold serial dilution in triplicates using a liquid handler. Human whole blood stabilized in lithium-heparin tubes was added in a volume of 65 μL per well, resulting in a final DMSO concentration of 0.5%. The plate is incubated for 2 h at 37° C. under 5% CO2/95% air. Subsequently, 5 μL of recombinant human IL-4 (R&D Systems, cat #204-ILB) was added to the wells to a final concentration of […]. The plate was incubated for 48 h at 37° C. under 5% CO2/95% air. The plate was spun down for 10 minutes at 500×g and 20 μL supernatant was harvested and transferred to a 384 well v-bottom plate using a liquid handler and stored at −20° C. until further analysis. 10 μL supernatant was used to measure the level of Eotaxin-3 (CCL26) using Human Eotaxin-3 MSD kit from Mesocsale (Cat #K251UEK-4). The assay was performed according to the manufacture instructions.
# The data from the human whole blood eotaxin-3 assay is shown below for Examples 1ab3, 1ab6, 1d23, and 1d4 (where the effect in % is plotted against the test concentration in M on a log-scale).
row,SMILES,Emax [%]
1,"[2H]C([2H])([2H])N(C(=O)c1ccc(C2CCN([C@@H](C)c3cc4c(-n5ncc(N)cc5=O)ccnc4n3C)CC2)cc1)C([2H])([2H])[2H] [Example 1af62, (S)-4-(1-(1-(4-(4-amino-6-oxopyridazin-1 (6H)-yl)-1-methyl-1H-pyrrolo[2,3-b]pyridin-2-yl)ethyl)piperidin-4-yl)-N,N-bis(methyl-d3)benzamide]",20 to 30
2,"[2H]C([2H])([2H])N(C(=O)c1ccc(C2=CCN(Cc3cc4c(-n5ccc6c(c5=O)CCN6)ccnc4n3C)CC2)cc1)C([2H])([2H])[2H] [Example 1af63, N,N-Bis(methyl-d3)-4-(1-((1-methyl-4-(4-oxo-1,2,3,4-tetrahydro-5H-pyrrolo[3,2-c]pyridin-5-yl)-1H-pyrrolo[2,3-b]pyridin-2-yl)methyl)-1,2,3,6-tetrahydropyridin-4-yl)benzamide]",30 to 40
3,"[2H]C([2H])([2H])N(C(=O)c1ccc(C2CCN(Cc3cc4c(-n5ccc(N)c(C)c5=O)ccnc4n3C)CC2)cc1)C([2H])([2H])[2H] [Example 1d22, 4-[1-[[4-(4-Amino-3-methyl-2-oxo-1-pyridyl)-1-methyl-pyrrolo[2,3-b]pyridin-2-yl]methyl]-4-piperidyl]-N,N-bis(trideuteriomethyl)benzamide]",70 to 80
4,"[2H]C([2H])([2H])N(C(=O)c1ccc(C2CCN(Cc3cc4c(-n5ccc6c(c5=O)CCN6)ccnc4n3C)CC2)cc1)C([2H])([2H])[2H] [Example 1d24, 4-[1-[[1-Methyl-4-(4-oxo-2,3-dihydro-1H-pyrrolo[3,2-c]pyridin-5-yl)pyrrolo[2,3-b]pyridin-2-yl]methyl]-4-piperidyl]-N,N-bis(trideuteriomethyl)benzamide]",70 to 80

# Same assay, conditions: Homo sapiens, 48 h, human whole blood stimulated with recombinant human IL-4, 48 h; inhibition of eotaxin-3 release; given for test compounds with >80% Emax; geometric mean
row,SMILES,EC50 [nM]
1,"[2H]C([2H])([2H])N(C(=O)c1cc(C)c(C2=CCN(Cc3cc4c(-n5ccc(N)cc5=O)ccnc4n3C)CC2)c(F)c1)C([2H])([2H])[2H] [Example 1ad5, 4-[1-[[4-(4-Amino-2-oxo-1-pyridyl)-1-methyl-pyrrolo[2,3-b]pyridin-2-yl]methyl]-3,6-dihydro-2H-pyridin-4-yl]-3-fluoro-5-methyl-N,N-bis(trideuteriomethyl)-benzamide]",5.21
2,"[2H]C([2H])([2H])N(C(=O)c1cc(C)c(C2=CCN(Cc3cc4c(-n5ccc6c(c5=O)CCN6)ccnc4n3C)CC2)c(F)c1)C([2H])([2H])[2H] [Example 1ad7, 3-Fluoro-5-methyl-N,N-bis(methyl-d3)-4-(1-((1-methyl-4-(4-oxo-1,2,3,4-tetrahydro-5H-pyrrolo[3,2-c]pyridin-5-yl)-1H-pyrrolo[2,3-b]pyridin-2-yl)methyl)-1,2,3,6-tetrahydropyridin-4-yl)benzamide]",6.8
3,"Cc1cc(C(=O)N(C)C)cc(F)c1C1=CCN(Cc2cc3c(-n4cc(F)c(N)cc4=O)ccnc3n2C)CC1 [Example 1ad10, 4-(1-((4-(4-amino-5-fluoro-2-oxopyridin-1 (2H)-yl)-1-methyl-1H-pyrrolo[2,3-b]pyridin-2-yl)methyl)-1,2,3,6-tetrahydropyridin-4-yl)-3-fluoro-N,N,5-trimethylbenzamide]",12.2
4,"[2H]C([2H])([2H])N(C(=O)c1ccc(C2CCN([C@@H](C)c3cc4c(-n5ccc(N)cc5=O)ccnc4n3C)CC2)cc1)C([2H])([2H])[2H] [Example 1af65, (S)-4-(1-(1-(4-(4-amino-2-oxopyridin-1 (2H)-yl)-1-methyl-1H-pyrrolo[2,3-b]pyridin-2-yl)ethyl)piperidin-4-yl)-N,N-bis(methyl-d3)benzamide]",19.6
5,"CNc1ccn(-c2ccnc3c2cc([C@H](C)N2CC=C(c4c(C)cc(C(=O)N(C)C)cc4F)CC2)n3C)c(=O)c1 [Example 1af82, (S)-3-fluoro-N,N,5-trimethyl-4-(1-(1-(1-methyl-4-(4-(methylamino)-2-oxopyridin-1 (2H)-yl)-1H-pyrrolo[2,3-b]pyridin-2-yl)ethyl)-1,2,3,6-tetrahydropyridin-4-yl)benzamide]",2.61
6,"CN(C)C(=O)c1ccc(C2CCN(Cc3cc4c(-n5ccc(N)c(C(=O)CCCO)c5=O)ccnc4n3C)CC2)cc1 [Example 1d44, 4-[1-[[4-[4-Amino-3-(4-hydroxybutanoyl)-2-oxo-1-pyridyl]-1-methyl-pyrrolo[2,3-b]pyridin-2-yl]methyl]-4-piperidyl]-N,N-dimethyl-benzamide]",307

# Further lines, results first:
row,EC50 [nM],SMILES
1,1530,"Cc1cc(C(=O)N(C)C)ccc1C1=CCN(Cc2cc3c(-n4ncc(N)cc4=O)ccnc3n2C)CC1 [Example 1ab5, 4-(1-((4-(4-Amino-6-oxopyridazin-1 (6H)-yl)-1-methyl-1H-pyrrolo[2,3-b]pyridin-2-yl)methyl)-1,2,3,6-tetrahydropyridin-4-yl)-N,N,3-trimethylbenzamide]"
2,6.09,"Cc1cc(C(=O)N(C)C)cc(F)c1C1=CCN(Cc2cc3c(-n4ccc(N)cc4=O)ccnc3n2C)CC1 [Example 1ad6, 4-[1-[[4-(4-Amino-2-oxo-1-pyridyl)-1-methyl-pyrrolo[2,3-b]pyridin-2-yl]methyl]-3,6-dihydro-2H-pyridin-4-yl]-3-fluoro-N,N,5-trimethyl-benzamide]"
3,8.9,"[2H]C([2H])([2H])N(C(=O)c1cc(C)c(C2=CCN(Cc3cc4c(-n5ccc(NC)cc5=O)ccnc4n3C)CC2)c(F)c1)C([2H])([2H])[2H] [Example 1ad8, 3-Fluoro-5-methyl-N,N-bis(methyl-d3)-4-(1-((1-methyl-4-(4-(methylamino)-2-oxopyridin-1 (2H)-yl)-1H-pyrrolo[2,3-b]pyridin-2-yl)methyl)-1,2,3,6-tetrahydropyridin-4-yl)benzamide]"
4,11.3,"[2H]C([2H])([2H])N(C(=O)c1cc(C)c(C2=CCN(Cc3cc4c(-n5cc(F)c(N)cc5=O)ccnc4n3C)CC2)c(F)c1)C([2H])([2H])[2H] [Example 1ad11, 4-(1-((4-(4-amino-5-fluoro-2-oxopyridin-1 (2H)-yl)-1-methyl-1H-pyrrolo[2,3-b]pyridin-2-yl)methyl)-1,2,3,6-tetrahydropyridin-4-yl)-3-fluoro-5-methyl-N,N-bis(methyl-d3)benzamide]"
5,2.67,"[2H]C([2H])([2H])N(C(=O)c1cc(C)c(C2=CCN([C@@H](C)c3cc4c(-n5ccc(NC)cc5=O)ccnc4n3C)CC2)c(F)c1)C([2H])([2H])[2H] [Example 1af83, (S)-3-fluoro-5-methyl-N,N-bis(methyl-d3)-4-(1-(1-(1-methyl-4-(4-(methylamino)-2-oxopyridin-1 (2H)-yl)-1H-pyrrolo[2,3-b]pyridin-2-yl)ethyl)-1,2,3,6-tetrahydropyridin-4-yl)benzamide]"
6,148,"CNc1ccn(-c2ccnc3c2cc(CN2CCC(c4ccc(C(=O)N(C)C)cc4Cl)CC2)n3C)c(=O)c1 [Example 1d37, 3-Chloro-N,N-dimethyl-4-[1-[[1-methyl-4-[4-(methylamino)-2-oxo-1-pyridyl]pyrrolo[2,3-b]pyridin-2-yl]methyl]-4-piperidyl]benzamide]"

# Same assay, conditions: human whole blood stimulated with recombinant human IL-4, 48 h; inhibition of eotaxin-3 release; given for test compounds with >80% Emax; geometric mean
row,SMILES,EC50 [nM]
1,"CNc1ccn(-c2ccnc3c2cc([C@H](C)N2CC[C@@H](c4c(C)cc(C(=O)N(C)C)cc4F)C(F)(F)C2)n3C)c(=O)c1 (stereo in doubt) [Example 1m142, 4-((S)-3,3-difluoro-1-((S)-1-(1-methyl-4-(4-(methylamino)-2-oxopyridin-1 (2H)-yl)-1H-pyrrolo[2,3-b]pyridin-2-yl)ethyl)piperidin-4-yl)-3-fluoro-N,N,5-trimethylbenzamide]",13.6
